Here are results for four molecules from patent US8012711B2, “Methods of screening for compounds that reduce microbial resistance to fluoroquinolones” (priority 1999, dated 2011).

Assay [1] has as its system Escherichia coli AG100, AG112 and derived fluoroquinolone-resistant mutants with ΔacrAB. Briefly: MIC by broth microdilution, AcrAB-deleted strains. Type of assay: cell-based. Conditions: Escherichia coli. The procedure:
(§1) Susceptibility testing. MICs of selected antimicrobial agents were determined by a standard broth microdilution procedure with cation-adjusted Mueller-Hinton broth (Becton Dickinson, Cockeysville, Md.) and an inoculum of 5×10^5 CFU/ml according to NCCLS performance and interpretive guidelines (NCCLS. 1997. Methods for dilution antimicrobial susceptibility. Tests for bacteria that grow aerobically—Fourth Edition; Approved Standard. NCCLS document M7-A4 (ISBN 1-56238-309-4). NCCLS, 940 West Valley Road, Suite 1400, Wayne, Pa. 19087). Antimicrobial agents on the commercially available microtiter plates (Merlin Diagnostics GmbH, Bornheim, Germany) included the FQs ciprofloxacin (CIP), enoxacin, fleroxacin, nor-flo-xacin, ofloxacin (OFL), pefloxacin, sparfloxacin (SPX), and trovafloxacin (TVA). They also included tetracycline (TET), chloramphenicol (CML), trimethoprim (TMP), cefoxitin (CFOX), cefaclor, cefixim and loracarbef. MICs of bile salts were determined by a broth macrodilution procedure: sodium cholate and sodium deoxycholate were serially diluted twofold in LB broth and tubes inoculated at 5×10^5 CFU/ml. MICs of both antibiotics and bile salts were determined twice in independent experiments with reproducible results.
P1 transduction. […] DNA sequencing.
A general note: Dilution methods test growth across graded concentrations, often in twofold steps.

For assay [2], the system named is Escherichia coli K-12 AG100, its Mar mutant AG112 and derived fluoroquinolone-resistant mutants (acrAB+). Briefly: MIC by broth microdilution, acrAB+ strains. Type of assay: cell-based. Conditions: Escherichia coli. The procedure:
Selection of fluoroquinolone-resistant mutants. 1-AG100, 2°-AG100, 3*-AG100, 4*-AG100 and 1′-AG112, 2′-AG112, 3′-AG112 were sequential step mutants derived from AG 100 and AG112, respectively, on solid media. For each step, about 10^11 cells of an overnight culture were plated on several LB agar plates supplemented with increasing concentrations of OFL. Single colonies were further purified on OFL-supplemented agar plates. Mutant 2°-AG100 came out of one series, while mutants 3*- and 4*-AG100 came from a second series.
as §1

A further assay deals with E. coli. Conditions: cited from earlier work.
Setting [3] is: strain 1-AG112 (1′-AG112), ΔacrAB.
[4] abbreviates: strain 2-AG100 (2°-AG100), ΔacrAB.
[5] abbreviates: strain 2-AG112 (2′-AG112), ΔacrAB.
Where [6] appears, read: strain 3-AG112 (3′-AG112), ΔacrAB.
Where [7] appears, read: strain 1-AG100, acrAB+, read-out: MIC.
Setting [8] is: strain 1-AG112 (1′-AG112), acrAB+, read-out: MIC.
[9] abbreviates: strain 2-AG100 (2°-AG100), acrAB+, read-out: MIC.
The mark [10] stands for this setting: strain 2-AG112 (2′-AG112), acrAB+, read-out: MIC.
The mark [11] stands for this setting: strain 3*-AG100, acrAB+, read-out: MIC.
Setting [12] is: strain 3-AG112 (3′-AG112), acrAB+, read-out: MIC.
Setting [13] is: strain 4*-AG100, acrAB+, read-out: MIC.
Where [14] appears, read: strain AG100, acrAB+, read-out: MIC.
The mark [15] stands for this setting: strain AG112 (Mar mutant), acrAB+.

Converted amounts (≈) assume the structure as drawn. Where two headings read alike, the source gives them in different places.

Broadly, the MIC is the lowest concentration found to suppress growth.

In the case of `C[C@@H]1CN(c2c(F)c(N)c3c(=O)c(C(=O)O)cn(C4CC4)c3c2F)C[C@H](C)N1` [SPX, sparfloxacin], the minimal inhibitory concentration (MIC) in assay [1] (all ΔacrAB mutants, below detection) is under 0.015 µg/mL; in assay [1] (strain 1-AG100, ΔacrAB), at most 0.015 µg/mL; in assay [1] (setting [3]) it was at most 0.015 µg/mL; in assay [1] (setting [4]) it was at most 0.015 µg/mL; in assay [1] (setting [5]), at most 0.015 µg/mL; in assay [1] (strain 3*-AG100, ΔacrAB), at most 0.015 µg/mL. Moreover, the minimum inhibitory concentration (MIC) in assay [1] (setting [6]) is at most 0.015 µg/mL; in assay [1] (strain 4*-AG100, ΔacrAB), at most 0.015 µg/mL; in assay [1] (strain AG100, ΔacrAB), at most 0.015 µg/mL; in assay [1] (strain AG112, ΔacrAB), at most 0.015 µg/mL; in assay [2] (setting [7]), 0.125 µg/mL (≈ 0.319 µM); in assay [2] (setting [8]) it was 0.25 µg/mL (≈ 0.637 µM). Also, the MIC is 0.25 µg/mL (≈ 0.637 µM) in assay [2] (setting [9]); 1 µg/mL (≈ 2.55 µM) in assay [2] (setting [10]); 0.5 µg/mL (≈ 1.27 µM) in assay [2] (setting [11]); 2 µg/mL (≈ 5.1 µM) in assay [2] (setting [12]); 2 µg/mL (≈ 5.1 µM) in assay [2] (setting [13]); at most 0.015 µg/mL in assay [2] (setting [14]). For the same molecule, the minimum inhibitory concentration (MIC) in assay [2] (setting [15]) is 0.06 µg/mL (≈ 0.153 µM).
Consider `CN(C)[C@@H]1C(O)=C(C(N)=O)C(=O)[C@@]2(O)C(O)=C3C(=O)c4c(O)cccc4[C@@](C)(O)[C@H]3C[C@@H]12` [TET, tetracycline], for which the MIC in assay [1] (strain 1-AG100, ΔacrAB) was found to be 1 µg/mL (≈ 2.25 µM); in assay [1] (setting [3]) it was 0.5 µg/mL (≈ 1.13 µM); in assay [1] (setting [4]), 0.5 µg/mL (≈ 1.13 µM); in assay [1] (setting [5]), 1 µg/mL (≈ 2.25 µM); in assay [1] (strain 3*-AG100, ΔacrAB), 1 µg/mL (≈ 2.25 µM); in assay [1] (setting [6]), 0.5 µg/mL (≈ 1.13 µM). Also, the MIC in assay [1] (strain 4*-AG100, ΔacrAB) was 1 µg/mL (≈ 2.25 µM); in assay [1] (strain AG100, ΔacrAB), 0.5 µg/mL (≈ 1.13 µM); in assay [1] (strain AG112, ΔacrAB) it was 1 µg/mL (≈ 2.25 µM); in assay [2] (setting [7]), 2 µg/mL (≈ 4.5 µM); in assay [2] (setting [8]) it was 4 µg/mL (≈ 9 µM); in assay [2] (setting [9]), 2 µg/mL (≈ 4.5 µM). The minimum inhibitory concentration (MIC) in assay [2] (setting [10]) is 16 µg/mL (≈ 36 µM); in assay [2] (setting [11]), 8 µg/mL (≈ 18 µM); in assay [2] (setting [12]) it was 8 µg/mL (≈ 18 µM); in assay [2] (setting [13]) it was 8 µg/mL (≈ 18 µM); in assay [2] (setting [14]) it was 1 µg/mL (≈ 2.25 µM); in assay [2] (setting [15]), 4 µg/mL (≈ 9 µM).
As for `N[C@@H]1[C@H]2CN(c3nc4c(cc3F)c(=O)c(C(=O)O)cn4-c3ccc(F)cc3F)C[C@@H]12` [TVA, trovafloxacin], the MIC in assay [1] (strain 1-AG100, ΔacrAB) is 0.06 µg/mL (≈ 0.144 µM); in assay [1] (setting [3]), 0.06 µg/mL (≈ 0.144 µM); in assay [1] (setting [4]), 0.06 µg/mL (≈ 0.144 µM); in assay [1] (setting [5]) it was 0.06 µg/mL (≈ 0.144 µM); in assay [1] (strain 3*-AG100, ΔacrAB) it was 0.06 µg/mL (≈ 0.144 µM); in assay [1] (setting [6]) it was 0.06 µg/mL (≈ 0.144 µM). Also, the MIC in assay [1] (strain 4*-AG100, ΔacrAB) is 0.125 µg/mL (≈ 0.3 µM); in assay [1] (strain AG100, ΔacrAB) it was at most 0.03 µg/mL; in assay [1] (strain AG112, ΔacrAB), at most 0.03 µg/mL; in assay [2] (setting [7]), 0.25 µg/mL (≈ 0.6 µM); in assay [2] (setting [8]), 0.5 µg/mL (≈ 1.2 µM); in assay [2] (strain 2-AG100 (2°-AG100), acrAB+) it was 0.25 µg/mL (≈ 0.6 µM). The MIC in assay [2] (setting [10]) was 1 µg/mL (≈ 2.4 µM); in assay [2] (setting [11]) it was 0.5 µg/mL (≈ 1.2 µM); in assay [2] (setting [12]) it was 2 µg/mL (≈ 4.8 µM); in assay [2] (setting [13]) it was 2 µg/mL (≈ 4.8 µM); in assay [2] (setting [14]), 0.06 µg/mL (≈ 0.144 µM); in assay [2] (setting [15]), 0.125 µg/mL (≈ 0.3 µM).
Take `Oc1cc(Cl)ccc1Oc1ccc(Cl)cc1Cl` [triclosan]: in the assay on E. coli (deletion of acrAB, all strains), the “Reduction of resistance to triclosan” value is 10 fold. In addition, the “Increase of resistance to triclosan” value is on record as “about 100 fold” in the assay with E. coli (mutation in enoyl reductase (fabI)) and “about two-fold” in the assay on E. coli (overexpression of acrAB, marA, or soxS).
